Test results taken from patent publication US4317768A, “Dihydropyridine derivatives as stabilizers for vinyl chloride polymers” (priority 1977, dated 1982).
Where “and” joins values, the source holds several entries; their conditions need not be identical. Equal values may be shown once.

Tests used:
[1] = Polarographic study of the oxidation potential; format: physicochemical; settings: acetonitrile, 0.1 M lithium perchlorate, vitrous carbon electrode, calomel reference
Text: By a polarographic study of their oxidation potential, compared to well-known antioxidants such as 2,6-diterbutyl-4-methyl-phenol, 2-terbutyl-4-methoxy-phenol, 4-methoxy-phenol and hydroquinone.
Reference electrode: Calomel electrode containing a saturated solution of anhydrous lithium perchlorate as bridge liquid.
Working electrode: Vitrous carbon rotating electrode (2,500 r.p.m.)
Counter-electrode: Platinum electrode
Acetonitrile containing less than 0.1% of water and presenting no polarographic waves between -2.5 V and +2.5 V.
Anhydrous lithium perchlorate containing less than 1% of water.
A 0.1 M solution of lithium perchlorate in acetonitrile, treated and preserved on a 4 A molecular sieve.
Amplitude of exploration: 0 to 2 V
Speed of exploration: 10 mV/second
Sensitivity: 1.25 μA to 50 μA
Mean concentration: about 0.3×10^-3 mol/liter
Between each measurement, the vitrous carbon electrode and the platinum electrode were carefully cleaned with Joseph paper.

[2] = Photostabilizing power, PVC plates exposed to the sun, GARDNER scale
Method: (§1) The photostabilizing power of the compounds of the invention was studied by exposing to the sun polyvinyl chloride plates which had been stabilized either by a dihydropyridine of the invention or by 2-phenyl-indole, or again by 2-(3'-methoxy-4'-hydroxy)-indole. This last product is an extremely valuable thermostabilizer for thermoplastic resins and is described in British Pat. No. 1,489,685.
(§2) The resin given hereunder was prepared by mixing on cylinders at 160° C.:
(§3) The plates of stabilized polyvinyl chloride, together with a plate which had not been stabilized, were stood in the sun under the same conditions and at the same time. Their colour was measured after 6 hours and 12 hours of exposure.
(§4) The coloration of the plates was determined according to two methods:
On the plates themselves, following the GARDNER scale, as in the section on thermostability,
The sign + means that the coloration lies between the lower unit and the upper half-unit. Thus, 3+ means that the coloration lies between 3 and 3.5. Similarly, the sign - means that the coloration lies between the lower half-unit and the upper unit.

[3] = Static thermostability (GARDNER method), rigid PVC sheets, 210° C., 0.3 part stabilizer
Procedure, shortened: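 Rigid sheets calendered at 160° C. from powdered PVC resin with 0.3 part by weight stabilizer (dihydropyridine or 2-phenyl-indole reference) plus usual ingredients. Sheets heated in oven at 210° C., removed every three minutes over 21 minutes until incipient carbonization. Coloration scored against GARDNER scale reference figures.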

[4] = Comparison with stabilizer G1, rigid co-polymer, 0.5 part, 185° C.
Text: (b) Comparison with stabilizer G1
Stabilizer G1 is a mixture of 1,4-butanediol-β-aminocrotonate and of β-aminocrotonate of alcohols containing from 16 to 18 carbon atoms.

[5] = Photostabilizing power, tetrahydrofuran solution of plates exposed to the sun, French Pharmacopeia
Method: as §1, §2, §3, §4
On a solution of these plates in tetrahydrofuran, the coloration of th solution being measured according to the French Pharmacopeia (IXth edition, II-338).

[6] = Static thermostability (GARDNER method), rigid PVC sheets, 185° C., 0.3 part stabilizer
Method: (§5) This study was carried out according to the GARDNER method, described in British Pat. No. 1,489,685.
(§6) The reference substance was 2-phenyl-indole, a well-known and widely used stabilizer.
(§7) The stabilizer (dihydropyridine or 2-phenyl-indole) and the other usual ingredients were mixed with powdered vinyl resins and the mixtures were calendered at a temperature of 160° C. to give rigid sheets.
(§8) The sheets were then heated in a thermostated oven (185° C. or 210° C.) for different intervals of time until incipient carbonization.
(§9) The coloration of the samples was compared to a standard scale of coloration, known as the GARDNER scale and was expressed in terms of the reference figures of the GARDNER scale.
(§10) This study was carried out with the following resin:
(§11) Polyvinyl chloride resin
(§12) SL 2016 is a solution of zinc-2-ethyl-hexanoate in a mixture of hydrocarbons boiling between 158° C. and 184° C.
A second trial was performed at a temperature of 185° C., with a resin containing 0.3 part of stabilizer, the samples being removed from the oven every 6 minutes over a period of 24 minutes, then every 3 minutes until the 42nd minute (or until carbonization).

[7] = Comparison with stabilizer G1, rigid co-polymer (12.5 to 13.5% of acetate), 0.5 part, 185° C.
Text: Another comparison was made with the following rigid co-polymer: […]

[8] = Comparison with stabilizer G1, 0.1 part, 185° C.
Method: A test was also carried out with the following compound:
Another test was made with the same resin but containing 0.1 part of stabilizer.

[9] = Static thermostability (GARDNER method), rigid PVC sheets, 185° C., equimolecular quantities; settings: 1.55×10^-3 mol
Method: as §5, §6, §7, §8, §9, §10, §11, §12
Finally, a trail was performed at 185° C., with resins containing equimolecular quantities of the dihydropyridines or of 2-phenyl-indole, namely 1.55×10^-3 mol. In this case too, the samples were removed from the oven every 6 minutes over a period of 24 minutes and then every 3 minutes until the 42nd minute (or until carbonization).

[10] = Colour of the resin after each passage in a blower-extruder
Method: (2) Examination of the colour of the resin after each passage (3 in all) in a blower-extruder, the mould being a 250 ml cylindrical flask.
Four resins where tested, the first containing 0.2% of 2-phenyl-indole and the others 0.2%, 0.03% and 0.015% of compound 1 respectively.

[11] = Comparison with 2-phenyl-indole, vinyl chloride-vinyl acetate co-polymer, 185° C.; settings: 0.3 part
Method: (c) Comparison with 2-phenyl-indole
A comparative test was made using the following compound:
The sheets were heated in a ventilated oven at 185° C. and the following results were obtained: […]

[12] = Photostabilizing power, sheets exposed to the sun, co-polymer (a)
Method: (§13) The sheets were exposed to the sun and their colorations were also determined according to the GARDNER method.

[13] = Photostabilizing power, sheets exposed to the sun, rigid co-polymer (b)
Method: as §13

[14] = Comparison with 2-phenyl-indole, vinyl chloride-vinylidene chloride co-polymer, 210° C.; settings: 0.3 part
Method: A second test was made using the following compound:
The sheets were heated in a ventilated oven at 210° C. and the following results were obtained: […]

In the case of `C#CCOC(=O)C1=C(C)NC(C)=C(C(=O)OCC#C)C1` [Compound 2, 2,6-Dimethyl-3,5-dicarbopropargyloxy-1,4-dihydropyridine], the Oxidation potential [1] is reported as 0.80 ± 0.01 volts, the “Coloration of the plates GARDNER” value ([2]; exposure to sun 0) is reported as 1 and the “Coloration of the plates GARDNER” value ([2]; exposure to sun 6h) is reported as 1. For the same compound, the “Coloration of the plates GARDNER” value ([2]; exposure to sun 12h) was 1.5, the “coloration, GARDNER scale” value ([3]; 0 min) was 1 and the “coloration of the resins, in words” value ([3]; 0 to 3 minutes) was “considerably less”. For the same compound, the “coloration, GARDNER scale” value ([3]; 3 min) was 1, the “thermostabilizing power compared to 2-phenyl-indole, in words” value ([3]; 210° C.) was “greatly superior to 2-phenyl-indole” and the “coloration, GARDNER scale” value ([3]; 6 min) was 1. The “coloration, GARDNER scale” value ([3]; 9 min) was 4, the “coloration, GARDNER scale” value ([3]; 12 min) was 8 and the “coloration, GARDNER scale” value ([3]; 15 min) was 12. For the same compound, the “coloration, GARDNER scale” value ([3]; 18 min) was “Burnt”, the “coloration, GARDNER scale” value ([4]; 0 min) was 1 and the “coloration, GARDNER scale” value ([4]; 2 min) was 1. The “coloration, GARDNER scale” value ([4]; 4 min) was 1.5, the “coloration, GARDNER scale” value ([4]; 6 min) was 5 and the “coloration, GARDNER scale” value ([4]; 8 min) was 10. The “coloration, GARDNER scale” value ([4]; 10 min) was 12, the “coloration, GARDNER scale” value ([4]; 12 min) was 16 and the “Coloration of the plates FRENCH PHARMACOPEIA” value ([5]; exposure to sun 0) was “JV6”. The “Coloration of the plates FRENCH PHARMACOPEIA” value ([5]; exposure to sun 6h) was “JV6”, the “Coloration of the plates FRENCH PHARMACOPEIA” value ([5]; exposure to sun 12h) was “JV5” and the “coloration, GARDNER scale” value ([6]; 0 min) was 1. For the same compound, the “coloration, GARDNER scale” value ([6]; 6 min) was 1, the “coloration, GARDNER scale” value ([6]; 12 min) was 2 and the “coloration, GARDNER scale” value ([6]; 18 min) was 4. For the same compound, the “coloration, GARDNER scale” value ([6]; 24 min) was 6, the “coloration, GARDNER scale” value ([6]; 27 min) was 7 and the “coloration, GARDNER scale” value ([6]; 30 min) was 8.5. For the same compound, the “coloration, GARDNER scale” value ([6]; 33 min) was 9, the “coloration, GARDNER scale” value ([6]; 36 min) was 10.5 and the “coloration, GARDNER scale” value ([6]; 39 min) was 12. The “coloration, GARDNER scale” value ([6]; 42 min) was 18, the “coloration, GARDNER scale” value ([7]; 0 min) was 1 and the “coloration, GARDNER scale” value ([7]; 2 min) was 1. The “coloration, GARDNER scale” value ([7]; 4 min) was 2, the “coloration, GARDNER scale” value ([7]; 6 min) was 3 and the “coloration, GARDNER scale” value ([7]; 10 min) was 8.5. The “coloration, GARDNER scale” value ([7]; 12 min) was 13, the “coloration, GARDNER scale” value ([7]; 14 min) was 17 and the “coloration, GARDNER scale” value ([7]; column without printed time, between 6 and 10 min) was 4. For the same compound, the “coloration, GARDNER scale” value ([8]; 0 min) was 1, the “coloration, GARDNER scale” value ([8]; 2 min) was 1 and the “coloration, GARDNER scale” value ([8]; 4 min) was 2. The “coloration, GARDNER scale” value ([8]; 6 min) was 4, the “coloration, GARDNER scale” value ([8]; 8 min) was 8 and the “coloration, GARDNER scale” value ([8]; 10 min) was 10. For the same compound, the “coloration, GARDNER scale” value ([8]; 12 min) was 12 and the “coloration, GARDNER scale” value ([8]; 14 min) was 13.

With `c1ccc(-c2cc3ccccc3[nH]2)cc1` [2-Phenyl-indole, 2-phenyl-indole, reference compound] the “Coloration of the plates GARDNER” value ([2]; exposure to sun 6h) was 3, the “coloration, GARDNER scale” value ([9]; 0 min) was 1 and the “coloration, GARDNER scale” value ([9]; 6 min) was 2. The “coloration, GARDNER scale” value ([9]; 12 min) was 3, the “coloration, GARDNER scale” value ([9]; 18 min) was 10 and the “coloration, GARDNER scale” value ([9]; 24 min) was 13. The “coloration, GARDNER scale” value ([9]; 27 min) was 14, the “coloration, GARDNER scale” value ([9]; 30 min) was 14 and the “coloration, GARDNER scale” value ([9]; 33 min) was 14. The “coloration, GARDNER scale” value ([9]; 36 min) was 16, the “coloration, GARDNER scale” value ([9]; 39 min) was 16 and the “coloration, GARDNER scale” value ([9]; 42 min) was “Burnt”. The “coloration, GARDNER scale” value ([3]; 0 min) was 1, the “colour of the flask” value ([10]; after the second passage) was “blue color tending towards green” and the “colour of the flask” value ([10]; after the third passage) was “greenish-blue”. The “coloration, GARDNER scale” value ([11]; 0 min) was 1, the “coloration, GARDNER scale” value ([11]; 2 min) was 1 and the “coloration, GARDNER scale” value ([11]; 4 min) was 2. The “coloration, GARDNER scale” value ([11]; 6 min) was 3, the “coloration, GARDNER scale” value ([11]; 8 min) was 8 and the “coloration, GARDNER scale” value ([11]; 10 min) was 12. The “coloration, GARDNER scale” value ([11]; 12 min) was 14, the “coloration, GARDNER scale” value ([11]; 14 min) was 17 and the “coloration, GARDNER scale” value ([6]; 0 min) was 1. For the same compound, the “coloration, GARDNER scale” value ([6]; 6 min) was 1, the “coloration, GARDNER scale” value ([6]; 12 min) was 3 and 4 and 5 and the “coloration, GARDNER scale” value ([6]; 24 min) was 13 and 11. The “coloration, GARDNER scale” value ([6]; 27 min) was 14 and 13, the “coloration, GARDNER scale” value ([6]; 30 min) was 15 and 14 and the “coloration, GARDNER scale” value ([6]; 33 min) was 15 and 14. The “coloration, GARDNER scale” value ([6]; 36 min) was 16 and 14 and 15, the “coloration, GARDNER scale” value ([6]; 39 min) was 16 and 15 and the “Colour in GARDNER degrees” value ([12]; After 24 hours) was 6 GARDNER degrees and 8 GARDNER degrees. For the same compound, the “Colour in GARDNER degrees” value ([12]; Time 0) was 1 GARDNER degrees, the “Colour in GARDNER degrees” value ([13]; After 24 hours) was 17 GARDNER degrees and 13 GARDNER degrees and the “Colour in GARDNER degrees” value ([13]; Time 0) was 1.5 GARDNER degrees and 1 GARDNER degrees. For the same compound, the “coloration, GARDNER scale” value ([14]; 0 min) was 2 and 1, the “coloration, GARDNER scale” value ([14]; 3 min) was 2 and 1 and the “coloration, GARDNER scale” value ([14]; 6 min) was 5 and 4. For the same compound, the “coloration, GARDNER scale” value ([14]; 9 min) was 8.5 and 10, the “coloration, GARDNER scale” value ([14]; 12 min) was 14 and 15 and the “coloration, GARDNER scale” value ([14]; 15 min) was 16.
